Results as given in US5516790A, “Synthesis and application of alkyl-substituted dibenzofurans as antitumorigenic agents” (Texas A&M University System Technology Licensing Office, priority 1994, dated 1996).
Like-named read-outs stand apart in the source and are kept apart here.

Legend:
160-kDa protein [1] = type: cell-based, human; details: for Secreted 160-kDa protein / Protein Secretion, 160-kDa: 2880 min
Method: (§1) On day 0, the media was removed and the cells were rinsed two times with PBS. […] The cells were allowed to incubate for 48 h. […] After 6 h, the media was removed, 10 μl was counted and the remaining media was used for analysis of secreted proteins.
(§2) The secreted proteins were analyzed by sodium dodecyl sulfate (SDS) polyacrylamide gel electrophoresis; 30 μl of the media was mixed with an equal volume of buffer containing SDS, β-mercaptoethanol, glycerol, Tris and bromophenol blue. The samples were heated for 2 minutes in a boiling water bath and 50 μl of each sample was loaded onto a 1.5 mm thick 12% acrylamide slab gel (containing 0.075% bisacrylamide) with a 3% stacking gel (containing 0.15% bisacrylamide). The gels were run at […] overnight and processed for fluorography (using Enhance: Dupont) and exposed to Kodak X-OMAT film for 10 days at -80° C. The molecular weights of the proteins were estimated by their mobility relative to a set of standard proteins with known molecular weights.
(§3) The incorporation of ^35 S-methionine into the 34-kDa, 52-kDa and 160-kDa proteins was estimated by scanning the films using a Zeineh Soft Laser Scanning Densitometer (model SLR-20/10) from Biomedical Instruments,Inc. The percentage of the area of the scans due to the particular protein was then compared between the experimental and control samples and the results are presented as means ± SD for at least three samples per treatment group.

34-kDa protein [2] = type: cell-based, human; details: for Secreted 34-kDa protein / Protein Secretion, 34-kDa: 2880 min
Method: as §1, §2, §3

52-kDa protein [3] = type: cell-based, human
Method: as §1, §2, §3

[4] = tested on: MCF-7 human breast cancer cells; details: cited from earlier work
MDA-MB-231 cell line = details: cited from earlier work
estrogen receptor [5] = details: cited from earlier work
uterus [6] = details: weanling female C57BL/6 mice; cited from earlier work
uterus [7] = details: cited from earlier work
[8] = tested on: tissue plasminogen activator; details: MCF-7 human breast cancer cells; cited from earlier work
[9] = tested on: mammary and uterine tumors; details: long term feeding studies; cited from earlier work
female rat uterus = experiment: Antiestrogenic effect on uterine wet weight, immature female Sprague-Dawley rats (Example 8); type: in vivo; details: run A
estrogen receptor (ER) = experiment: Uterine estrogen receptor levels, hydroxyapatite assay (Example 8); type: in vivo, female Sprague-Dawley rats; details: run A
Method: A second group of animals was similarly treated with corn oil, TCDD, MCDF, or TCDD plus MCDF, all administered in corn oil at 10 ml/kg and terminated 72 hours later.
(§4) The animals were terminated by cervical dislocation. Livers were perfused with ice-cold TEDG buffer (10 mM Tris-HCl, 1.5 mM EDTA-4Na, 1 mM dithiothreitol, 10% glycerol (v/v), pH 7.4). Following perfusion in situ, livers were removed, weighed, and homogenized in ice-cold TEDG buffer. Uteri were also removed, weighed, and homogenized in ice-cold buffer. The homogenates were then centrifuged at 800×g ([…]) for 15 minutes and the nuclear pellets were stored at -80° C. The supernatants were further centrifuged at 180,000× g for 1.5 hours. The cytosolic supernatant was also stored at -80° C. Estrogen and progesterone receptor levels were determined within 7 days.
(§5) Estrogen (ER) and progesterone (PR) receptor levels were determined by the hydroxyapatite assay as described by Clark et al. (J. Steroid Biochem. 16:323-328, 1982) and incorporated herein by reference. […] Following the incubations, samples were counted and specific binding was calculated by subtraction of nonspecific from total binding. Assuming one steroid molecule binds to one estrogen/progesterone receptor, the number of moles of receptor can be calculated given the specific activity of the radioligand. The data presented in Tables 1 through 6 are means ± SD using at least four animals per treatment group. Significant differences were determined by analysis of variance.

[10] = tested on: progesterone receptor (PR); experiment: Uterine progesterone receptor levels, hydroxyapatite assay (Example 8); type: in vivo, female Sprague-Dawley rats; details: run A
Method: as §4, §5

[11] = tested on: MCF-7 human breast cancer cells; experiment: Growth of MCF-7 human breast cancer cells; type: cell-based; details: MCDF
AHH and EROD induction [12] = experiment: TCDD antagonism / Ah receptor agonist activity (AHH and EROD induction)
Ah receptor = experiment: Binding affinity for the Ah receptor
estrogen receptor [13] = experiment: Uterine and hepatic estrogen receptor levels (literature); type: in vivo, rat; details: in comparison to control test animals, rats and mice
uterus [14] = experiment: Uterine wet weight / uterotrophic effects (literature, summary); type: in vivo, rat; details: rats, in comparison to control
uterus [15] = experiment: Uterine wet weights in mice (summary); type: in vivo; details: in comparison to control
34-kDa protein [16] = details: Biegel and Safe, 1990; cited from earlier work
52-kDa protein [17] = details: Biegel and Safe, 1990; cited from earlier work
160-kDa protein [18] = details: Biegel and Safe, 1990; cited from earlier work
AHH and EROD induction [19] = details: previous studies; cited from earlier work
EGF receptor = details: cited from earlier work
uterus [20] = details: cited from earlier work; remark: listed apart in the source
Toxicity = details: in vivo
[21] = 17β-estradiol (1 nM) + TCDD 0.0001 nM
[22] = 17β-estradiol (1 nM) + TCDD 0.001 nM
[23] = 17β-estradiol (1 nM) + TCDD 0.01 nM
[24] = 17β-estradiol (1 nM) + TCDD 0.1 nM
[25] = 150 μmol/kg + E-2 (2 × 10 μg/rat)
[26] = compound alone, 150 μmol/kg (17β-estradiol: 2 × 10 μg/rat)

Clc1cc2c(cc1Cl)Oc1cc(Cl)c(Cl)cc1O2 [TCDD, 2,3,7,8-tetrachloridibenzo-p-dioxin]
secretion of the 160-kDa protein (160-kDa protein [1]; 10 nM TCDD alone): did not significantly affect | Secreted 160-kDa protein (160-kDa protein [1]; [21]): 321 ± 29.0% of the values for control | Secreted 160-kDa protein (160-kDa protein [1]; [22]): 167 ± 31.3% of the values for control | Secreted 160-kDa protein (160-kDa protein [1]; [23]): 127 ± 21.0% of the values for control | Secreted 160-kDa protein (160-kDa protein [1]; [24]): 94.3 ± 5.23% of the values for control | Secreted 160-kDa protein (160-kDa protein [1]; TCDD alone, 0.0001 nM): 97.4 ± 2.73% of the values for control | Secreted 160-kDa protein (160-kDa protein [1]; TCDD alone, 0.001 nM): 94.3 ± 3.00% of the values for control | Secreted 160-kDa protein (160-kDa protein [1]; TCDD alone, 0.01 nM): 90.4 ± 17.2% of the values for control | Secreted 160-kDa protein (160-kDa protein [1]; TCDD alone, 0.1 nM): 92.8 ± 5.16% of the values for control | hormone-induced secretion of the 160-kDa protein (160-kDa protein [1]; TCDD plus 17β-estradiol): significantly inhibited | secretion of the 34-kDa protein (34-kDa protein [2]; 10 nM TCDD alone): did not significantly affect | Secreted 34-kDa protein (34-kDa protein [2]; [21]): 255 ± 37.8% of the values for control | Secreted 34-kDa protein (34-kDa protein [2]; [22]): 151 ± 20.7% of the values for control | Secreted 34-kDa protein (34-kDa protein [2]; [23]): 94.2 ± 24.0% of the values for control | Secreted 34-kDa protein (34-kDa protein [2]; [24]): 94.9 ± 11.4% of the values for control | Secreted 34-kDa protein (34-kDa protein [2]; TCDD alone, 0.0001 nM): 86.5 ± 8.56% of the values for control | Secreted 34-kDa protein (34-kDa protein [2]; TCDD alone, 0.001 nM): 95.2 ± 12.8% of the values for control | Secreted 34-kDa protein (34-kDa protein [2]; TCDD alone, 0.01 nM): 85.7 ± 11.9% of the values for control | Secreted 34-kDa protein (34-kDa protein [2]; TCDD alone, 0.1 nM): 94.5 ± 133% of the values for control | hormone-induced secretion of the 34-kDa protein (34-kDa protein [2]; TCDD plus 17β-estradiol): significantly inhibited | secretion of the 52-kDa protein (52-kDa protein [3]; 10 nM TCDD alone): did not significantly affect | hormone-induced secretion of the 52-kDa protein (52-kDa protein [3]; TCDD plus 17β-estradiol): significantly inhibited | 17β-estradiol-induced growth of MCF-7 human breast cancer cells ([4]; TCDD): inhibits | secretion of the 34-, 52- and 160-kDa proteins (MDA-MB-231 cell line; TCDD plus 17β-estradiol): did not affect | secretion of the 34-, 52- and 160-kDa proteins (MDA-MB-231 cell line; compound alone): did not affect | binding to the estrogen receptor (estrogen receptor [5]): does not bind | uterine weights (uterus [6]): decreased | estrogenic effects of 17β-estradiol on uterine weights (uterus [7]; TCDD with 17β-estradiol): partially blocked | uterine weights (uterus [7]; female Long Evans rats): decreased | estrogen mediated excretion of tissue plasminogen activator activity [8]: suppressed | spontaneous development of mammary and uterine tumors [9]: significantly decreased

Cc1cc(Cl)cc2c1oc1cc(Cl)cc(Cl)c12 [MCDF, 6-methyl 1,3,8-trichlorodibenzofuran]
Uterine Wet Weight (female rat uterus; [25]): 0.194 ± 0.023 % body wt | Uterine Wet Weight (female rat uterus; [26]): 0.104 ± 0.004 % body wt | Estrogen Receptor Levels, Cytosolic (estrogen receptor (ER); [25]): 78.9 ± 79.1 fmol/mg protein | Estrogen Receptor Levels, Nuclear (estrogen receptor (ER); [25]): 43.3 ± 73.4 fmol/mg protein | Estrogen Receptor Levels, Cytosolic (estrogen receptor (ER); [26]): 55.1 ± 0.9 fmol/mg protein | Estrogen Receptor Levels, Nuclear (estrogen receptor (ER); [26]): 49.3 ± 10.2 fmol/mg protein | Progesterone Receptor Levels, Cytosolic [10, 25]: 1203 ± 110 fmol/mg protein | Progesterone Receptor Levels, Nuclear [10, 25]: 435 ± 91 fmol/mg protein | Progesterone Receptor Levels, Cytosolic [10, 26]: 915 ± 63 fmol/mg protein | Progesterone Receptor Levels, Nuclear [10, 26]: 312 ± 50 fmol/mg protein | Protein Secretion, 160-kDa (160-kDa protein [1]; 17β-estradiol + MCDF): 76 % of Control | 17β-estradiol-induced secretion of the 160-kDa protein (160-kDa protein [1]; MCDF): inhibits | Protein Secretion, 160-kDa (160-kDa protein [1]; MCDF alone (100 nM)): 72 % of Control | Protein Secretion, 34-kDa (34-kDa protein [2]; 17β-estradiol + MCDF): 78 % of Control | 17β-estradiol-induced secretion of the 34-kDa protein (34-kDa protein [2]; MCDF): inhibits | Protein Secretion, 34-kDa (34-kDa protein [2]; MCDF alone (100 nM)): 80 % of Control | 17β-estradiol-induced secretion of the 52-kDa protein (52-kDa protein [3]; MCDF): inhibits | 17β-estradiol-induced growth of MCF-7 cells [11]: inhibits | agonist for Ah receptor mediated response (AHH and EROD induction [12]): poor agonist | Ah receptor binding activity (Ah receptor): relatively high | nuclear and cytosolic hepatic and uterine estrogen receptors (estrogen receptor [13]): decreases | uterine wet weights (uterus [14]): decreases | uterine wet weights (uterus [15]): decreases | 17β-estradiol-induced secretion of the 34-kDa protein (34-kDa protein [16]): inhibits | 17β-estradiol-induced secretion of the 52-kDa protein (52-kDa protein [17]): inhibits | 17β-estradiol-induced secretion of the 160-kDa protein (160-kDa protein [18]): inhibits | 17β-estradiol-induced growth of MCF-7 cells ([4]; Biegel, 1990): inhibits | antagonist to the activities of TCDD (AHH and EROD induction [19]): antagonist | 17β-estradiol-induced increased EGF receptor binding and mRNA levels (EGF receptor): inhibits | 17β-estradiol-induced increases in rat uterine wet weight (uterus [20]): active as an antiestrogen | uterotrophic effects of 17β-estradiol (uterus [20]; rat, in vivo): inhibits | toxicity (Toxicity): low toxicity | toxicity of amounts giving antiestrogenic effects (Toxicity): nontoxic
